What all share (format): cell-based
Experiment [1] has as its system Drp1-Ser616 phosphorylation. Kind of experiment: Drp1 ratio assay with chemiluminescence format. The settings on record: ADP 20 μM; for Time to maximum Drp1 ratio after exposure to agonist: arachidonic acid 500 μg/mL, SFLLRN 25 μM, elevated by 5 minutes. How it is done: Samples were subsequently lysed and assessed by either colorimetric or chemiluminescence ELISAs. […] Samples were activated with the indicated platelet agonist [A: ADP (20 μM); […] Samples were left at room temperature for the indicated amount of time prior to freezing (−80° C.) and were subsequently analyzed using the Drp1 ratio assay with a chemiluminescence format. […] FIGS. 12A-12C show activation time studies with various platelet agonists. Platelets were exposed to agonists and subsequently analyzed using the Drp1 ratio assay with a chemiluminescence format.

Experiment [2] concerns Drp1-Ser616 phosphorylation. Kind of experiment: Western blot of Drp1 Ser616 phosphorylation in platelets. The settings on record: for Drp1 phosphorylation at Ser616 elicited by the agent: platelets incubated with the agent; for Effect on SFLLRN-induced (PAR1-mediated) Drp1-Ser616 phosphorylation: platelets. Background: Immunoblotting shows a protein as a band on a membrane.

Experiment [3] has as its system Drp1-Ser637 phosphorylation. Kind of experiment: Western blot of Drp1 Ser637 phosphorylation in platelets.
For experiment [4], the system named is Drp1-Ser616 phosphorylation. Kind of experiment: MAP kinase inhibition studies, ELISA of agonist-induced Drp1-Ser616 phosphorylation in twice washed platelets. The settings on record: agonists SFLLRN, U46619, collagen, ADP or AYPGKF; SB203580 20 μM, PD0325901 5 μM, SP600125 5 μM. How it is done: Using twice washed platelets, 400 μL aliquots were incubated at 37° C. for 30 min with SB203580 (20 μM), PD0325901 (5 μM), SP600125 (5 μM) or left untreated and then activated with respective agonist for 10 min at 37° C. Subsequently, 100 μL of 5×RIPA buffer was added and samples were lysed on ice for minimum of 15 min. Samples were stored at −80° C. until assayed by ELISA.
(§1) Capture antibody (Ms Drp1 mAb) diluted in Tris-buffered saline (TBS) was incubated on plates at RT (2 hrs) or at 4° C. overnight. […] Wells were blocked with 3% BSA in TBST for a minimum of 1.5 hrs. […] Wells were again washed with TBST and incubated with either Rb Drp1 or p-Drp1 (Ser616) mAb at RT for 1 hr.

Experiment [5] concerns Drp1-Ser616 phosphorylation. Kind of experiment: Drp1-Ser616 phosphorylation assay in whole blood. The settings on record: for Effect on SFLLRN-induced phospho-Drp1-Ser616 signal: whole blood; for Stimulation of Drp1-Ser616 phosphorylation: whole blood (thrombin: whole blood and platelet rich plasma).
In experiment [6] the test system is Drp1-Ser616 phosphorylation. The experiment can be described thus: Arachidonic acid-induced Drp1-Ser616 phosphorylation in platelets, ELISA dose response. The settings on record: Platelet; [arachidonic acid]=10 μg/mL; read-out: IC50, inhibition of arachidonic acid-induced phosphorylation of Drp1-Ser616. How it is done:
Dilutions of Tyrode's buffer+3 mM aspirin were prepared. A modified platelet wash protocol was then performed. PRP [supplemented with 20% ACD (v/v) and PGE1 (1 μM)] was spun at 800 g for 12 min. After removal of the supernatant, platelet pellet was resuspended in Tyrode's buffer and allowed to rest at 37° C. for minimum of 25 min. Platelets were counted by Hemavet and were again supplemented with ACD and PGE1 before being aliquoted into microcentrifuge tubes and spun at 800 g for 12 min. Aliquots were of sufficient volume to permit a final platelet count of approximately 4×10^5/μL when platelet pellet was resuspended in 400 μL of Tyrode's buffer or Tyrode's buffer/aspirin dilution. After resuspension, samples were incubated at 37° C. for 1 hr before being activated for 10 min at 37° C. with arachidonic acid (Bio Data Corp. Horsham, PA) at a final concentration of 10 μg/mL. Samples were lysed with 100 μL 5×RIPA buffer on ice for a minimum of 15 min before being stored at −80° C. until assayed by ELISA.
as §1
A general note: In an ELISA, binding on a coated surface is turned into a signal by an enzyme label.

Experiment [7] relates to Drp1-Ser616 phosphorylation. Kind of experiment: SFLLRN-induced Drp1-Ser616 phosphorylation in washed platelets, ELISA dose response (phospho-Drp1-Ser616/total Drp1). The settings on record: Platelet; read-out: IC50, inhibition of SFLLRN-induced Drp1-Ser616 phosphorylation. On the procedure:
Serial dilutions of Vorapaxar and Cangrelor were prepared in DMSO. […] Vehicle only samples were also prepared and incubated at 37° C. Samples were subsequently lysed with 5×RIPA buffer and stored at −80° C. until assayed by ELISA.
as §1

For experiment [8], the system named is platelet aggregation. Kind of experiment: Platelet aggregometry, ADP-activated platelets. The settings on record: ADP 20 μM, compared with Drp1 ratio assay.

Entries after “also recorded” stand apart in the source; their conditions may differ.

In general, IC50 refers to the concentration needed to halve the response being measured.

Regarding `Nc1ncnc2c1ncn2[C@@H]1O[C@H](COP(=O)(O)OP(=O)(O)O)[C@@H](O)[C@H]1O` [ADP], the “Time to maximum Drp1 ratio after exposure to agonist” value (“Time to maximum Drp1 ratio” below) in experiment [1] is “approximately 12. 5 minutes”. Also, the “Drp1 phosphorylation at Ser616 elicited by the agent” value (from here on “Drp1 phosphorylation”) in experiment [2] is given as “resulted in 5616-Drp1 phosphorylation”.

As for `CCCCCCOC(=O)[C@]1(O)C[C@@H]2O[C@@]1(C)n1c3ccccc3c3c4c(c5c6ccccc6n2c5c31)C(=O)NC4` [KT5720], the “Effect on forskolin-mediated Drp1-Ser637 phosphorylation” value in experiment [3] was “completely abolished”.

Consider `CNc1nc(Cl)nc2c1ncn2CC(COC(=O)C(C)(C)C)COC(=O)C(C)(C)C` [MRS 2395], for which the “Effect on ADP-induced Drp1-Ser616 phosphorylation” value in experiment [2] (platelets incubated with ADP) was “inhibited”.

For the molecule `O=C(NOC[C@H](O)CO)c1ccc(F)c(F)c1Nc1ccc(I)cc1F` [PD0325901], the “Effect on agonist-induced Drp1-Ser616 phosphorylation” value in experiment [4] was “modest inhibition”.

Regarding `Cn1cc(C2=C(c3cn(CCCSC(=N)N)c4ccccc34)C(=O)NC2=O)c2ccccc21` [Ro 31-8220], in experiment [2], the “Effect on SFLLRN-induced (PAR1-mediated) Drp1-Ser616 phosphorylation” value is “failed to inhibit”.

On to `C[S+]([O-])c1ccc(-c2nc(-c3ccncc3)c(-c3ccc(F)cc3)[nH]2)cc1` (stereo not shown) [SB203580], for which the “Effect on agonist-induced Drp1-Ser616 phosphorylation” value in experiment [4] is “potently blocked”. In addition, the “Effect on SFLLRN-induced (PAR1-mediated) Drp1-Ser616 phosphorylation” value in experiment [2] is “inhibited”. Besides, in experiment [5], the “Effect on SFLLRN-induced phospho-Drp1-Ser616 signal” value is recorded as “inhibited”.

As for `Oc1c2ccccc2c2c3c(cccc13)N=N2` [SP600125], the “Effect on agonist-induced Drp1-Ser616 phosphorylation” value in experiment [4] is recorded as “failed to inhibit”.

As to `CCCCC[C@H](O)/C=C/[C@@H]1[C@@H](C/C=C\CCCC(=O)O)[C@H]2CO[C@@H]1C2` [U46619], in experiment [2], the “Drp1 phosphorylation” value is on record as “Phosphorylation of Drp1 at S616 was observed”. In experiment [5], the “Stimulation of Drp1-Ser616 phosphorylation” value (“Stimulation” below) is recorded as “significant stimulation”.

Turning to `CCCCC/C=C\C/C=C\C/C=C\C/C=C\CCCC(=O)O` [arachidonic acid], the “Time to maximum Drp1 ratio” value in experiment [1] is recorded as “approximately 12. 5 minutes”. For the same molecule, the “Stimulation” value in experiment [5] is listed as “significant stimulation”.

Regarding `CC(=O)Oc1ccccc1C(=O)O` [aspirin, acetylsalicylic acid], the 50% inhibitory concentration (IC50) in experiment [6] is approximately 1000 nM.

Consider `CSCCNc1nc(SCCC(F)(F)F)nc2c1ncn2[C@@H]1O[C@H](COP(=O)(O)OP(=O)(O)C(Cl)(Cl)P(=O)(O)O)[C@@H](O)[C@H]1O` [cangrelor], for which the IC50 in experiment [7] is approximately 2 nM. In addition, the “Sensitivity of Drp1 ratio assay to inhibition” value in experiment [1] (compared with platelet aggregometry) was “equally sensitive”. In addition, the “Sensitivity of platelet aggregometry to inhibition” value in experiment [8] was “equally sensitive”.

Consider `O=C1CCc2cc(OCCCCc3nnnn3C3CCCCC3)ccc2N1` [cilostazol], for which the “Effect on SFLLRN-induced (PAR1-mediated) Drp1-Ser616 phosphorylation” value in experiment [2] is “blocks; also recorded: sensitive; also recorded: prevents phophorylation at Ser616”.

With `COC(=O)[C@H](c1ccccc1Cl)N1CCc2sccc2C1` [clopidogrel], in experiment [5], the “Effect on SFLLRN-induced phospho-Drp1-Ser616 signal” value was “inhibited”.

For `CCOC(=O)N[C@@H]1CC[C@@H]2[C@@H](C1)C[C@H]1C(=O)O[C@H](C)[C@H]1[C@H]2/C=C/c1ccc(-c2cccc(F)c2)cn1` [vorapaxar], the IC50 in experiment [7] was approximately 5 nM. In addition, the “Effect on SFLLRN-induced phospho-Drp1-Ser616 signal” value in experiment [5] is given as “inhibited”.

For the molecule SFLLRN, the “Time to maximum Drp1 ratio” value in experiment [1] is listed as “approximately 12. 5 minutes”. In experiment [2], the “Drp1 phosphorylation” value is “Phosphorylation of Drp1 at S616 was observed”. Besides, the “Time at which phospho-Drp1-Ser616 signal reaches peak” value in experiment [5] (following activation of platelets by SFLLRN (FIG. 6C)) is 15 min. Further, in experiment [5] (stimulation of whole blood), the “Increase in phospho-Drp1-Ser616 to total Drp1” value is on record as “greater than 2 fold”.

Regarding collagen, the “Drp1 phosphorylation” value in experiment [2] is recorded as “Phosphorylation of Drp1 at S616 was observed”.

For thrombin, in experiment [5], the “Stimulation” value is on record as “significant increases”.

Source of the values: US12235278B2, “Compositions and methods for evaluation of antiplatelet drug sensitivity” (Beth Israel Deaconess Medical Center, Inc., priority 2018, dated 2025).
